From patent US20070116784A1, “Imatinib combinations for head and neck cancers” (priority 2003, published 2007)
Like-named read-outs stand apart in the source and are kept apart here.

Columns and labels:
DOK = experiment: Growth inhibition assay (SRB); format: cell-based
Protocol: (§1) Cell lines are sub-cultured weekly and routinely screened for mycoplasma contamination.
(§2) The cells are fixed with 100 μl of pre-chilled 10% trichloroacetic acid after removal of the medium. The plates are then chilled at 4° C. for 1 h. Following this, the plates are washed twice with water and stained with 50 μl of 0.4% SRB in 1% acetic acid for 10 min at room temperature. The unbound dye is removed and the plates are washed in 1% acetic acid to further remove unbound dye. […] Growth inhibition curves are plotted and IC50 values determined.

HN3 ACC primary culture = experiment: cells; format: cell-based, human
FaDu = experiment: Growth inhibition assay (SRB); format: cell-based, human
Protocol: as §1, §2

Cal27 = experiment: Growth inhibition assay (SRB); format: cell-based, human
Protocol: as §1, §2

HN1 ACC primary culture = experiment: cells; format: cell-based, human
HN5 ACC primary culture = experiment: Growth inhibition assay (SRB); format: cell-based, human

SMILES	IC50 (DOK; DOK, 5-7 days, read-out: IC50)	IC50 (HN3 ACC primary culture; read-out: IC50)	IC50 (HN1 ACC primary culture; read-out: IC50)	IC50 (HN1 ACC primary culture; Homo sapiens)	other results
COc1cccc2c1C(=O)c1c(O)c3c(c(O)c1C2=O)C[C@@](O)(C(=O)CO)C[C@@H]3O[C@H]1C[C@H](N)[C@H](O)[C@H](C)O1 [Adr]	20 nM	60 nM			
COc1ccc(/C=C\c2cc(OC)c(OC)c(OC)c2)cc1O [Ca4, combrestatin]			> 20 nM		IC50 (DOK; read-out: IC50): 3.32 nM; IC50 (FaDu): 3.69 nM; IC50 (Cal27): 1.46 nM; IC50 (HN5 ACC primary culture; read-out: IC50): 3.06 nM
N.N.[Cl][Pt][Cl] [Cisp, cisplatin]	3700 nM	2800 nM	5000 nM		
O=c1[nH]cc(F)c(=O)[nH]1 [Compound 5FU, 5 fluorouracil]	22000 nM			4800 nM	
Nc1ccn([C@@H]2O[C@H](CO)[C@@H](O)C2(F)F)c(=O)n1 [Gem, gemcitabine]	7.06 nM			1.95 nM	
CO[C@@]12[C@H](COC(N)=O)C3=C(C(=O)C(C)=C(N)C3=O)N1C[C@@H]1N[C@@H]12 [MMC, mitomycin C]	60 nM	1160 nM	1750 nM		
N[C@@H](Cc1ccc(N(CCCl)CCCl)cc1)C(=O)O [Mel, melphalan]	111000 nM			66600 nM	IC50 (HN3 ACC primary culture; Homo sapiens): 27500 nM; IC50 (HN5 ACC primary culture; Homo sapiens): 7300 nM
CC1=C(N2CC2)C(=O)C(CO)=C(N2CC2)C1=O [RH1]		0.86 nM	7.11 nM		IC50 (DOK; read-out: IC50): 0.33 nM; IC50 (FaDu): 1.34 nM; IC50 (Cal27): 0.11 nM; IC50 (HN5 ACC primary culture; read-out: IC50): 0.87 nM
CC(=O)O[C@H]1C(=O)[C@@]2(C)[C@H]([C@H](OC(=O)c3ccccc3)[C@]3(O)C[C@H](OC(=O)[C@H](O)[C@@H](NC(=O)c4ccccc4)c4ccccc4)C(C)=C1C3(C)C)[C@]1(OC(C)=O)CO[C@@H]1C[C@@H]2O [Taxol, 5(beta),20-Epoxy-1,2(alpha),4,7(beta), 10(beta), b 13(alpha)-hexahydroxytax-11-en-9-one4,10-diacetate 2-benzoate 13-ester with (2R ,3S )-N-benzoyl-3-phenylisoserine]	2.7 ng/mL			6.1 ng/mL	IC50 (HN3 ACC primary culture; Homo sapiens): 6.1 ng/mL
CC[C@]1(O)C[C@@H]2CN(CCc3c([nH]c4ccccc34)[C@@](C(=O)OC)(c3cc4c(cc3OC)N(C)[C@H]3[C@@](O)(C(=O)OC)[C@H](OC(C)=O)[C@]5(CC)C=CCN6CC[C@]43[C@@H]65)C2)C1 [VBL, vinblastin]					IC50 (DOK; DOK, 5-7 days): 0.3 ng/mL; IC50 (HN1 ACC primary culture): 1.3 ng/mL; IC50 (HN3 ACC primary culture): 0.9 ng/mL
